pIC50: −log10 of the molar value.
Experiments:
U87MG cells = assay: Wound-healing assay, U87MG; assay type: cell-based, human; conditions: 10 μM, vs control at 24 and 48 h
Method: U87MG cells grown to confluence in 6-well dishes (5 × 10^4 cells/well) were scratched with a 200 μL pipette tip. Cells were cultured in a 1% serum medium with or without 10 μM of 7l. Quantitative assessment of the wound area was performed under an inverted microscope, as previously described.[63] The distance that the advancing cells had moved into the wound area was measured after 24 and 48 h. The migration was calculated as the average number of cells observed in three random of high-power wounded fields/per well in duplicate wells and expressed in percentage of control (% of control).

H5V cells = assay: Tube formation assay, H5V endothelial cells with U87MG conditioned medium; assay type: cell-based, murine; conditions: H5V cells with CM2, medium from U87MG cultured with 10 μM, 48 h
Method: Subconfluent U87MG cell cultures were placed in media supplemented with 1% FBS (representing the conditioned medium 1 (CM1) or control) or containing 10 μM of 7l molecule (representing the conditioned medium 2 (CM2)) and incubated at 37 °C for 48 h. Subsequently, the CMs were collected and centrifuged at 2000 rpm for 5 min, and the supernatants were frozen at −80 °C until use. GeltrexTM reduced growth factor basement membrane matrix (Invitrogen) was thawed at 4 °C overnight before use. GeltrexTM matrix was added to a 24-well plate (95 μL/well) and then incubated at 37 °C for 30 min to allow polymerization. Murine microvascular endothelial cells (H5V) were starved overnight in the growth medium, and then the cells were seeded onto the layer of GeltrexTM matrix and cultured with 200 μL of CM1 and CM2 at 37 °C for 48 h. Three randomly selected fields of view were captured with a digital camera (Canon) connected to an inverted microscope (Axio Observer A1; Carl Zeiss, Göttingen, Germany). Tube numbers per field were calculated as the percentage of control.

[1] = Bidirectional permeability (Caco-2); assay type: in vitro ADME; conditions: human
VEGF-A = VEGF-A release in conditioned media, ELISA, U87MG; assay type: cell-based, human; conditions: 10 μM, 48 h
Method: VEGF-A release in conditioned media was measured using the ELISA sandwich enzymatic method with specific anti-VEGF-A (cat. No. ELH-VEGF) antibodies coated on a 96-well plate, according to the manufacturer’s guidelines. Briefly, confluent U87MG cells grown in media supplemented with 1% FBS were treated for 48 h with 10 μM of 7l. Standards and supernatants from samples were pipetted into the wells containing the immobilized VEGF antibody. The wells were then washed before adding a biotinylated antihuman VEGF antibody. Following incubation, the unbound biotinylated antibody was washed off, and HRP-conjugated streptavidin was pipetted in each well. After an additional wash step, a TMB substrate solution was added to each well, resulting in blue coloration proportional to the amount of bound VEGF. Finally, the stop solution was added, and the colorimetric intensity of the blue substrate now turned yellow was measured at 450 nm.

human CYP2D6 = molecular target: T1, human CYP2D6 (Homo sapiens, UniProt P10635); assay: CYP2D6 inhibition (Eurofins); assay type: in vitro ADME
T1 construct: Eurofins Scientific (contract assay) 1338
T1 sequence (P10635 whole entry): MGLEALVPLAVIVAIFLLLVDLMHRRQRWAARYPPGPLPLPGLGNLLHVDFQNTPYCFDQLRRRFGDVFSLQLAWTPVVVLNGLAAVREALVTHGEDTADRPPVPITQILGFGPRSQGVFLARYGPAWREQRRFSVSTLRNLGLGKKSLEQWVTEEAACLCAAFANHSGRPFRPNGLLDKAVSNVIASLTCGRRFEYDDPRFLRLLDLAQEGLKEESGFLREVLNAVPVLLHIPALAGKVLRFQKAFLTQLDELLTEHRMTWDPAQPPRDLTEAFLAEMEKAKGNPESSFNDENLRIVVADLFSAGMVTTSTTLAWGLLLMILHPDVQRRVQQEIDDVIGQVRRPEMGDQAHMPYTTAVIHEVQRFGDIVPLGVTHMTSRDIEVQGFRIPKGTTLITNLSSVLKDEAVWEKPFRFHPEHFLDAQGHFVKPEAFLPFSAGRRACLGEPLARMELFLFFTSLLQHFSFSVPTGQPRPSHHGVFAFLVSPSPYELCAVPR
Source text: (§1) In vitro ADMET testing has been performed at Eurofins Scientific.

human CYP3A4 = molecular target: T2, human CYP3A4 (Homo sapiens, UniProt P08684); assay: CYP3A4 inhibition (Eurofins); assay type: in vitro ADME
T2 construct: Eurofins Scientific (contract assay) 391
T2 sequence (P08684 whole entry): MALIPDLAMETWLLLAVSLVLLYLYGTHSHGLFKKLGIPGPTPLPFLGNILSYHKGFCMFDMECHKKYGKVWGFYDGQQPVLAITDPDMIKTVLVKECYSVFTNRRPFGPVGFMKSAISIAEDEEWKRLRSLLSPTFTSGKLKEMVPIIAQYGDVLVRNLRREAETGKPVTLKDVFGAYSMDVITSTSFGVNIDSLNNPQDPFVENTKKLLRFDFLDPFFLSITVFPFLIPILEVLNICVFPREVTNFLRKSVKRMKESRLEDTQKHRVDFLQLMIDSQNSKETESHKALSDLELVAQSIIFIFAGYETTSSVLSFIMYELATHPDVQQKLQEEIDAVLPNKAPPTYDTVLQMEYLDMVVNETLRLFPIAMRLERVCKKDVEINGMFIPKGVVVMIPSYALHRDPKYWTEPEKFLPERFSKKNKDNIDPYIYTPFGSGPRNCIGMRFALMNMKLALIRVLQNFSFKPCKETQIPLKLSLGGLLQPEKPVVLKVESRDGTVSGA
Source text: as §1

[2] = Caco-2, pH 6.5/7.4, tested concentration 10 μM

In the case of `CN(C(=O)Cn1ccnc1)C(c1ccccc1)c1ccc(Cl)cc1` (centres unmarked) [7l, N-((4-Chlorophenyl)(phenyl)methyl)-2-(1H-imidazol-1-yl)-N-methylacetamide], the “cell motility, wound-healing assay (in words)” value (U87MG cells) was “drastically reduced”, the “number of tube-like structures (in words)” value (H5V cells) was “significantly decreased” and the efflux ratio at 10 μM ([1]; Caco-2, read-out: efflux ratio (Papp BA/Papp AB)) was 0.44. The Papp A→B at 10 µM [1, 2] was 44.1 ×10⁻⁶ cm/s, the Papp B→A at 10 µM [1, 2] was 19.4 ×10⁻⁶ cm/s and the “VEGF release in the culture medium (in words)” value (VEGF-A) was “significant reduction”. For the same compound, the pIC50 (human CYP2D6) was 5.60 and the pIC50 (human CYP3A4) was 6.74.

— paper PMC8474116, “Discovery of Novel Acetamide-Based Heme Oxygenase-1 Inhibitors with Potent In Vitro Antiproliferative Activity” (Journal of Medicinal Chemistry, 2021)
